What follows are compounds tested against T1, GLP-1R (Homo sapiens, UniProt P43220) (assay: GLP-1R activation cAMP assay (Assay 1 or Assay 2)). Settings: cAMP increase in CHO cells stably expressing GLP-1R; compounds run on one of the two cAMP assays.
T1 construct: host or cells: CHO cells
Type: cell-based
Outline: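 EC50 values come from a sigmoidal fit of HTRF-detected cAMP rise versus log agonist concentration. GLP-1R-expressing CHO cells, equilibrated 1 h at 37 °C in HBSS with HEPES and BSA, received a 10-point compound dose series for 30 min before detection.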

T1 sequence (P43220 24-463): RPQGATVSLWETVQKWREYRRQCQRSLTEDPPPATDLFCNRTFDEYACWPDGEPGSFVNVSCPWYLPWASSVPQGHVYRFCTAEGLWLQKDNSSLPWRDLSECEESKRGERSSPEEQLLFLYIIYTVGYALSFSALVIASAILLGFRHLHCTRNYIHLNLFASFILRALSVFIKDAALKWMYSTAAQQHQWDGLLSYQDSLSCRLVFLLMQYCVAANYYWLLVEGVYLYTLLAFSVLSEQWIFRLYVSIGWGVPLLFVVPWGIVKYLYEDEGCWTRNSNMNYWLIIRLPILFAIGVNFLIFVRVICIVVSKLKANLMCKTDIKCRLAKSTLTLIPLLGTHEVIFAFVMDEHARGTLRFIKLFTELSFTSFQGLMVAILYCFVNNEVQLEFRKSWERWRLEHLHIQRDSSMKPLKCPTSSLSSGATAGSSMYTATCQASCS

Question: For `N#CC1(NC(=O)c2ccc(COc3cccc(-c4cc(F)c(Cc5nc6ccc(C(=O)O)cc6n5C[C@@H]5CCO5)cc4F)n3)cn2)CC1` [Example 183, (S)-2-(4-(6-((6-((1-cyanocyclopropyl)carbamoyl)pyridin-3-yl)methoxy)pyridin-2-yl)-2,5-difluorobenzyl)-1-(oxetan-2-ylmethyl)-1H-benzo[d]imidazole-6-carboxylic acid], which EC50 is on record?
Answer: 0.26 nM

Question: How did the EC50 turn out when `N#CC1(NC(=O)c2cc(Cl)c(COc3cccc(-c4cc(F)c(Cc5nc6ccc(C(=O)O)cc6n5C[C@@H]5CCO5)cc4F)n3)cn2)CC1` [Example 184, (S)-2-(4-(6-((4-chloro-6-((1-cyanocyclopropyl)carbamoyl)pyridin-3-yl)methoxy)pyridin-2-yl)-2,5-difluorobenzyl)-1-(oxetan-2-ylmethyl)-1H-benzo[d]imidazole-6-carboxylic acid] was run?
Answer: 0.12 nM

Question: Which EC50 does the source give for `N#CC1(NC(=O)c2cc(Cl)c(COc3cccc(-c4cc(F)c(Cc5nc6c(F)cc(C(=O)O)cc6n5C[C@@H]5CCO5)cc4F)n3)cn2)CC1` [Example 185, (S)-2-(4-(6-((4-chloro-6-((1-cyanocyclopropyl)carbamoyl)pyridin-3-yl)methoxy)pyridin-2-yl)-2,5-difluorobenzyl)-4-fluoro-1-(oxetan-2-ylmethyl)-1H-benzo[d]imidazole-6-carboxylic acid] here?
Answer: 0.08 nM

Question: Which EC50 does the source give for `O=C(O)c1ccc2nc(Cc3cc(F)c(-c4cccc(OCc5cnc(C(=O)NC6(C(F)F)CC6)cc5Cl)n4)cc3F)n(C[C@@H]3CCO3)c2c1` [Example 186, (S)-2-(4-(6-((4-chloro-6-((1-(difluoromethyl)cyclopropyl)carbamoyl)pyridin-3-yl)methoxy)pyridin-2-yl)-2,5-difluorobenzyl)-1-(oxetan-2-ylmethyl)-1H-benzo[d]imidazole-6-carboxylic acid] here?
Answer: 0.91 nM

Question: Which EC50 does the source give for `N#CC1(NC(=O)c2cc(Cl)c(COc3cccc(-c4cc(F)c(Cc5nc6ccc(C(=O)O)cc6n5C[C@@H]5CCO5)cc4F)n3)cn2)COC1` [Example 187, (S)-2-(4-(6-((4-chloro-6-((3-cyanooxetan-3-yl)carbamoyl)pyridin-3-yl)methoxy)pyridin-2-yl)-2,5-difluorobenzyl)-1-(oxetan-2-ylmethyl)-1H-benzo[d]imidazole-6-carboxylic acid] here?
Answer: 0.12 nM

Question: For `N#CC1(NC(=O)c2cc(Cl)c(COc3cccc(-c4cc(F)c(Cc5nc6c(F)cc(C(=O)O)cc6n5C[C@@H]5CCO5)cc4F)n3)cn2)COC1` [Example 188, (S)-2-(4-(6-((4-chloro-6-((3-cyanooxetan-3-yl)carbamoyl)pyridin-3-yl)methoxy)pyridin-2-yl)-2,5-difluorobenzyl)-4-fluoro-1-(oxetan-2-ylmethyl)-1H-benzo[d]imidazole-6-carboxylic acid], which EC50 is on record?
Answer: 0.05 nM

Question: For `N#CC1(NC(=O)c2cc(Cl)c(COc3cccc(-c4cc(F)c(Cc5nc6ccc(C(=O)O)cc6n5C[C@@H]5CCO5)cc4F)n3)cn2)CCC1` [Example 189, (S)-2-(4-(6-((4-chloro-6-((1-cyanocyclobutyl)carbamoyl)pyridin-3-yl)methoxy)pyridin-2-yl)-2,5-difluorobenzyl)-1-(oxetan-2-ylmethyl)-1H-benzo[d]imidazole-6-carboxylic acid], which EC50 is on record?
Answer: 0.3 nM

Question: How did the EC50 turn out when `N#CC1(NC(=O)c2cc(Cl)c(COc3cccc(-c4cc(F)c(Cc5nc6c(F)cc(C(=O)O)cc6n5C[C@@H]5CCO5)cc4F)n3)cn2)CCC1` [Example 190, (S)-2-(4-(6-((4-chloro-6-((1-cyanocyclobutyl)carbamoyl)pyridin-3-yl)methoxy)pyridin-2-yl)-2,5-difluorobenzyl)-4-fluoro-1-(oxetan-2-ylmethyl)-1H-benzo[d]imidazole-6-carboxylic acid] was run?
Answer: 0.2 nM

Question: How did the EC50 turn out when `O=C(O)c1ccc2nc(Cc3cc(F)c(-c4cccc(OCc5cnc(C(=O)NCC(F)(F)F)cc5Cl)n4)cc3F)n(C[C@@H]3CCO3)c2c1` [Example 191, (S)-2-(4-(6-((4-chloro-6-((2,2,2-trifluoroethyl)carbamoyl)pyridin-3-yl)methoxy)pyridin-2-yl)-2,5-difluorobenzyl)-1-(oxetan-2-ylmethyl)-1H-benzo[d]imidazole-6-carboxylic acid] was run?
Answer: 0.69 nM

Question: Which EC50 does the source give for `O=C(O)c1ccc2nc(Cc3cc(F)c(-c4cccc(OCc5cnc(C(=O)NCC(F)F)cc5Cl)n4)cc3F)n(C[C@@H]3CCO3)c2c1` [Example 192, (S)-2-(4-(6-((4-chloro-6-((2,2-difluoroethyl)carbamoyl)pyridin-3-yl)methoxy)pyridin-2-yl)-2,5-difluorobenzyl)-1-(oxetan-2-ylmethyl)-1H-benzo[d]imidazole-6-carboxylic acid] here?
Answer: 0.32 nM

Question: For `Cn1cc(CNC(=O)c2cc(Cl)c(COc3cccc(-c4cc(F)c(Cc5nc6ccc(C(=O)O)cc6n5C[C@@H]5CCO5)cc4F)n3)cn2)cn1` [Example 193, (S)-2-(4-(6-((4-chloro-6-(((1-methyl-1H-pyrazol-4-yl)methyl)carbamoyl)pyridin-3-yl)methoxy)pyridin-2-yl)-2,5-difluorobenzyl)-1-(oxetan-2-ylmethyl)-1H-benzo[d]imidazole-6-carboxylic acid], which EC50 is on record?
Answer: 0.22 nM

Question: Which EC50 does the source give for `Cn1cc(NC(=O)c2cc(Cl)c(COc3cccc(-c4cc(F)c(Cc5nc6ccc(C(=O)O)cc6n5C[C@@H]5CCO5)cc4F)n3)cn2)cn1` [Example 194, (S)-2-(4-(6-((4-chloro-6-((1-methyl-1H-pyrazol-4-yl)carbamoyl)pyridin-3-yl)methoxy)pyridin-2-yl)-2,5-difluorobenzyl)-1-(oxetan-2-ylmethyl)-1H-benzo[d]imidazole-6-carboxylic acid] here?
Answer: 0.17 nM

Question: `Cn1nccc1CNC(=O)c1cc(Cl)c(COc2cccc(-c3cc(F)c(Cc4nc5ccc(C(=O)O)cc5n4C[C@@H]4CCO4)cc3F)n2)cn1` [Example 195, (S)-2-(4-(6-((4-chloro-6-(((1-methyl-1H-pyrazol-5-yl)methyl)carbamoyl)pyridin-3-yl)methoxy)pyridin-2-yl)-2,5-difluorobenzyl)-1-(oxetan-2-ylmethyl)-1H-benzo[d]imidazole-6-carboxylic acid] was tested. Which EC50 did it give?
Answer: 0.11 nM

Question: `Cn1nccc1NC(=O)c1cc(Cl)c(COc2cccc(-c3cc(F)c(Cc4nc5ccc(C(=O)O)cc5n4C[C@@H]4CCO4)cc3F)n2)cn1` [Example 196, (S)-2-(4-(6-((4-chloro-6-((1-methyl-1H-pyrazol-5-yl)carbamoyl)pyridin-3-yl)methoxy)pyridin-2-yl)-2,5-difluorobenzyl)-1-(oxetan-2-ylmethyl)-1H-benzo[d]imidazole-6-carboxylic acid] was tested. Which EC50 did it give?
Answer: 0.29 nM

Question: How did the EC50 turn out when `N#CC1(NC(=O)c2ccc(COc3cccc(-c4cc(F)c(Cc5nc6c(F)cc(C(=O)O)cc6n5C[C@@H]5CCO5)cc4F)n3)cn2)CC1` [Example 197, (S)-2-(4-(6-((6-((1-cyanocyclopropyl)carbamoyl)pyridin-3-yl)methoxy)pyridin-2-yl)-2,5-difluorobenzyl)-4-fluoro-1-(oxetan-2-ylmethyl)-1H-benzo[d]imidazole-6-carboxylic acid] was run?
Answer: 0.08 nM

Question: Which EC50 does the source give for `CNC(=O)c1cc(Cl)c(COc2cccc(-c3cc(F)c(Cc4nc5c(F)cc(C(=O)O)cc5n4C[C@@H]4CCO4)cc3F)n2)cn1` [Example 198, (S)-2-(4-(6-((4-chloro-6-(methylcarbamoyl)pyridin-3-yl)methoxy)pyridin-2-yl)-2,5-difluorobenzyl)-4-fluoro-1-(oxetan-2-ylmethyl)-1H-benzo[d]imidazole-6-carboxylic acid] here?
Answer: 0.04 nM

Question: How did the EC50 turn out when `CC(C)(C#N)NC(=O)c1cc(Cl)c(COc2cccc(-c3cc(F)c(Cc4nc5ccc(C(=O)O)cc5n4C[C@@H]4CCO4)cc3F)n2)cn1` [Example 199, (S)-2-(4-(6-((4-chloro-6-((2-cyanopropan-2-yl)carbamoyl)pyridin-3-yl)methoxy)pyridin-2-yl)-2,5-difluorobenzyl)-1-(oxetan-2-ylmethyl)-1H-benzo[d]imidazole-6-carboxylic acid] was run?
Answer: 0.53 nM

Question: With `C[C@H](C#N)NC(=O)c1cc(Cl)c(COc2cccc(-c3cc(F)c(Cc4nc5ccc(C(=O)O)cc5n4C[C@@H]4CCO4)cc3F)n2)cn1` [Example 200, 2-(4-(6-((4-chloro-6-(((R)-1-cyanoethyl)carbamoyl)pyridin-3-yl)methoxy)pyridin-2-yl)-2,5-difluorobenzyl)-1-(((S)-oxetan-2-yl)methyl)-1H-benzo[d]imidazole-6-carboxylic acid] as the compound, how does the EC50 read?
Answer: 0.24 nM

Question: With `C[C@@H](C#N)NC(=O)c1cc(Cl)c(COc2cccc(-c3cc(F)c(Cc4nc5ccc(C(=O)O)cc5n4C[C@@H]4CCO4)cc3F)n2)cn1` [Example 201, 2-(4-(6-((4-chloro-6-(((S)-1-cyanoethyl)carbamoyl)pyridin-3-yl)methoxy)pyridin-2-yl)-2,5-difluorobenzyl)-1-(((S)-oxetan-2-yl)methyl)-1H-benzo[d]imidazole-6-carboxylic acid] as the compound, how does the EC50 read?
Answer: 0.39 nM

Question: How did the EC50 turn out when `CC1(C)COC[C@@H]1n1c(Cc2cc(F)c(-c3cccc(OCc4ccc(C(=O)NC5(C#N)CC5)nc4)n3)cc2F)nc2ccc(C(=O)O)cc21` [Example 202, (R)-2-(4-(6-((6-((1-cyanocyclopropyl)carbamoyl)pyridin-3-yl)methoxy)pyridin-2-yl)-2,5-difluorobenzyl)-1-(4,4-dimethyltetrahydrofuran-3-yl)-1H-benzo[d]imidazole-6-carboxylic acid] was run?
Answer: 0.58 nM

Question: For `NC(=O)c1ccc(COc2nccc(-c3cc(F)c(Cc4nc5ccc(C(=O)O)cc5n4C[C@@H]4CCO4)cc3F)n2)c(F)c1` [Example 203, (S)-2-(4-(2-((4-carbamoyl-2-fluorobenzyl)oxy)pyrimidin-4-yl)-2,5-difluorobenzyl)-1-(oxetan-2-ylmethyl)-1H-benzo[d]imidazole-6-carboxylic acid], which EC50 is on record?
Answer: 1.1 nM

Question: `NC(=O)c1sc(COc2cccc(-c3cc(F)c(Cc4nc5ccc(C(=O)O)cc5n4C[C@@H]4CCO4)cc3F)n2)cc1F` [Example 204, 2-[[4-[6-[(5-carbamoyl-4-fluoro-2-thienyl)methoxy]-2-pyridyl]-2,5-difluoro-phenyl]methyl]-3-[[(2S)-oxetan-2-yl]methyl]benzimidazole-5-carboxylic acid] was tested. Which EC50 did it give?
Answer: 5.57 nM
